Patent US11083725B2 (priority 2014, dated 2021)
“Also recorded” adds a separate entry of the source.

Tests used:
[1] = tested on: CA09; experiment: microbe, parasite or virus in culture; assay type: cell-based, influenza virus H1N1 strain A/CA/04/2009; settings: for log reduction at 10 pM / log reduction at 0.0001 µM / log reduction at 0.001 µM / log reduction at 0.01 µM / log reduction at 0.1 µM / log reduction at 1 µM / log reduction at 10 µM / log reduction at 100 µM: NHBE, read-out: TCID50 (per mL)
[2] = tested on: CA09; experiment: High-throughput modified TCID50 viral titer of drug-screen supernatant on MDCK cells (area under the curve); assay type: cell-based, influenza virus H1N1 strain A/CA/04/2009; settings: supernatant of CA09-infected NHBE cells titrated on MDCK cells
[3] = tested on: NHBE cells; experiment: cells; assay type: cell-based, human
[4] = tested on: PI3K/mTOR pathway; experiment: Immunoblot of PI3K/mTOR pathway phosphorylation in infected NHBE cells; assay type: cell-based, human
[5] = tested on: cMyc; experiment: Influenza-induced cMyc expression in NHBE cells; assay type: cell-based, human; settings: NHBE cells infected with CA04 up to 17 hours at MOI 1
Method: Referring to FIG. 13B, NHBE cells were infected with CA04 for up to 17 hours at MOI 1, harvested at indicated time and RNA purified from lysates then quantified with […].

[6] = tested on: CA09; experiment: In vivo drug tests in CA09-infected mice: weight loss, survival, lung viral titer; design: species or system C57/B6 mice
[7] = Blood chemistry and blood cell counts in treated infected mice; assay type: in vivo, C57/B6 mice; settings: 25 mg/kg daily oral gavage
Method: Referring to FIG. 9A-E, daily drug treatment was started 48 hours before intranasal infection with CA09 at an infectious dose of […] and maintained for 7 days. […] Data represent 3 mice per group.

[8] = tested on: NHBE cells; experiment: Seahorse metabolic flux (ECAR, OCR, PPR) in NHBE cells; assay type: cell-based, human; settings: drug 4 hours then infection at 1 MOI with CA04, read 17 hours later
Method: OCR and ECAR were measured with the XF-24 Extracellular Flux Analyzer (Seahorse Bioscience, North Billerica, Mass.). Briefly, 2.5×10^5 cells/well were seeded with XF media (non-buffered DMEM with 25 mM glucose, 2 mM L-glutamine, and 1 mM sodium pyruvate) in a Cell-Tak (BD Biosciences, San Jose, Calif.)-coated plate 17 hours after infection and 1 hour before loading the plate into the instrument.
Referring to FIG. 6A-C, NHBE cells were grown and differentiated in 24-well Seahorse plates and left untreated (control), infected for 17 hours at MOI 1 with either viable virus or a […] virus (CA09 or BPL, respectively) or stimulated with TLR agonists lipopolysaccharide (LPS), polyinosinic polycytidylic acid (PolyIC), or Resiquimod (R848). After treatment, the extracellular acidification rate (ECAR) (6A), oxygen consumption rate (OCR) (6B), and proton production rate (PPR) (6C) of NHBE cells were monitored for 2 hours. Error bars represent standard deviation from the mean of triplicate samples, where data represent 3 independent experiments.
Referring to FIG. 12C-E, NHBE cells were seeded in XF24 SEAHORSE cell […] for 4 hours followed by infection at 1 MOI with CA04. 17 hours later plates were processed and read on Seahorse following manufactures protocol.

[9] = Whole-body plethysmography of respiratory parameters in infected treated mice
[10] = tested on: NHBE cells; experiment: Seahorse spare respiratory and glycolytic capacity of infected NHBE cells; assay type: cell-based, human; settings: 10 nM BEZ235 for 1 hr, infected 17 hours at MOI 1 with CA04
[11] = tested on: BMDCs; experiment: Isotopically labeled substrate utilization in bone marrow-derived dendritic cells; assay type: cell-based, mouse
[12] = tested on: BMDCs; assay type: cell-based, mouse
[13] = infected mice, whole-body plethysmography

## O=CC[C@@H](O)[C@H](O)[C@H](O)CO [2-deoxyglucose]
[1]; FIG. 12B, NHBE supernatant titered on MDCK cells
  viral titer following therapeutic treatment: efficient at reducing viral load
[1]
  log reduction at 10 pM: 0.94
  log reduction at 0.0001 µM: 0.35
  log reduction at 0.001 µM: 0.48
  log reduction at 0.01 µM: 0.43
  log reduction at 0.1 µM: 0.28
  log reduction at 1 µM: 0.87
  log reduction at 10 µM: 1.01
  log reduction at 100 µM: 0.85
[1]; follow up validation titer, therapeutic treatment
  Viral Titer Therapeutic: Reduced
[2]
  viral titers in the high-throughput screening: reduced
[3]
  NHBE cell survival / cell death after infection: preferentially killed infected cells

## Cn1c(=O)n(-c2ccc(C(C)(C)C#N)cc2)c2c3cc(-c4cnc5ccccc5c4)ccc3ncc21 [NVP-BEZ235]
[4]
  4E-BP1 phosphorylation: completely abolished
  70S6K phosphorylation: completely abolished
  mTOR phosphorylation: reduces
  phosphorylation of PRAS40: time dependent decrease
[1]
  Viral Titer Prophylactic: Reduced
  viral titers in NHBE cells (validated drug hits): consistently reduced; also recorded: consistent reduction; also recorded: one of the most significant drops; also recorded: highest efficacy
  log reduction at 10 pM: 0.75
  log reduction at 0.0001 µM: 0.42
  log reduction at 0.001 µM: 0.5
  log reduction at 0.01 µM: 0.53
  log reduction at 0.1 µM: 0.29
  log reduction at 1 µM: 0.51
  log reduction at 10 µM: 0.97
  log reduction at 100 µM: 0.91
[2]
  viral titers in the high-throughput screening: reduced
[5]
  influenza-induced cMyc expression: ablates
[3]
  Cell Death Prophylactic: C = V
  Cell Death Therapeutic: C > V
  NHBE cell survival / cell death after infection: differentially affected; also recorded: differential effects
[6]; four days following infection, NVP-BEZ235 25 mg/kg oral gavage, titered on MDCK cells, 25 mg/kg
  viral titer from the lungs (HA titer): significant reduction; also recorded: significantly lower
[6]; infected adult mice
  influenza-induced mortality: reduces
[6]; mice infected intranasally with CA09, daily drug for 7 days from 2 days before infection (NVP-BEZ235 25 mg/kg oral gavage; clotrimazole 120 mg/kg ip; α-mangostin 8 mg/kg ip)
  weight loss: no significant effects; also recorded: no effect
[6]; mice infected intranasally with CA09, daily drug for 7 days from 2 days before infection, monitored 15 days
  survival: profound improvement; also recorded: dramatically improved
[7]
  tolerability: well tolerated
[7]; bled on day 7
  blood amylase: significantly altered
  blood protein levels: unchanged
  dehydration as measured by blood electrolyte levels and renal function: stable
  immune cell proliferation in the blood: no impact
  signs of toxicity in the blood chemistry analysis or in critical blood cell counts: no signs of toxicity
[8]
  influenza induced metabolic flux (ECAR, OCR, PPR): reverse influenza induced metabolic flux to untreated levels; also recorded: reversed
[9]; infected adult mice
  respiratory function: augments
[9]; [13]
  breath frequency: decreases
  expiration time: increases
  inspiration time: increases
  mid-expiratory tidal flow: reduction
  minute volume: decreases
  tidal flow: decreases
[10]
  glycolytic capacity of infected NHBE: slightly reducing; also recorded: slightly reduces
  spare respiratory capacity of infected NHBE: restores

## lipopolysaccharide [LPS]
[11]
  glycolysis (radiolabeled metabolic substrate assay): slight increase
  other substrate use measures (radiolabeled metabolic substrate assays): little effect

## polyinosinic polycytidylic acid [PolylC]
[12]
  all metabolites measured in flux assays: extreme drops
